Data as given in paper PMC11908892 (ACS infectious diseases, 2025).
≈ marks a conversion by molar mass, not a printed value. Entries after “also recorded” stand apart in the source; their conditions may differ. Like-named read-outs stand apart in the source and are kept apart here.

Legend:
M. tuberculosis H37Rv = assay: Microplate alamar blue assay; type: cell-based; conditions: Mycobacterium tuberculosis
E. coli ATCC 25922 [1] = assay: SYTOX Green uptake assay; type: cell-based; conditions: any of the concentrations tested; melittin as positive control
[2] = system: E. coli W3310ΔmscL::Kan, E. coli K12 W3310ΔmscS, E. coli W3310; type: cell-based; conditions: comparison between knock-out and WT strains
S. aureus ATCC 11632 = assay: Broth microdilution susceptibility testing; type: cell-based; conditions: Staphylococcus aureus, ATCC11632, read-out: Minimum Inhibitory Concentration (MIC90) S. aureus ATCC 11632 − Thy
E. coli ATCC 25922 [3] = assay: Broth microdilution susceptibility testing; type: cell-based; conditions: Escherichia coli, ATCC25922, read-out: Minimum Inhibitory Concentration (MIC90) E. coli ATCC 25922 − Thy
P. aeruginosa PAO1 = assay: Broth microdilution susceptibility testing; type: cell-based; conditions: Pseudomonas aeruginosa, PAO1, read-out: Minimum Inhibitory Concentration (MIC90) P. aeruginosa PAO1 − Thy
SaDHFR = SaDHFR (Staphylococcus aureus, UniProt P0A017); type: biochemical; conditions: apparent IC50; purified S. aureus DHFR
Chain of SaDHFR (P0A017 whole entry): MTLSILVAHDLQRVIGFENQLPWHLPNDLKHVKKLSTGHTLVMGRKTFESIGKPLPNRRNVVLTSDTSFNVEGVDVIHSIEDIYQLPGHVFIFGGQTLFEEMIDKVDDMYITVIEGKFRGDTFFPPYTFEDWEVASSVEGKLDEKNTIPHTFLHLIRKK

M. abscessus L948 = assay: MABA assay in M. abscessus; type: cell-based; conditions: for IC50: Mycobacteroides abscessus, L948, read-out: Half-Maximal Inhibitory Concentration (IC50, μM) M. abscessus L948 MABA
Micrococcus luteus = assay: Kirby-Bauer agar diffusion assay; type: cell-based
Bacillus subtilis = assay: Kirby-Bauer agar diffusion assay; type: cell-based
S. aureus = assay: Kirby-Bauer agar diffusion assay; type: cell-based; conditions: both tested strains of S. aureus
[4] = read-out: Minimum Inhibitory Concentration (MIC90, μM) M. tuberculosis H37Rv MABA: 7H12 Media
[5] = read-out: Minimum Inhibitory Concentration (MIC90, μM) M. tuberculosis H37Rv MABA: GAST Media

COc1c(N2C[C@@H]3CCCN[C@@H]3C2)c(F)cc2c(=O)c(C(=O)O)cn(C3CC3)c12 [Moxifloxacin]
MIC90 (M. tuberculosis H37Rv; [4]): 0.43 µM (≈ 0.173 µg/mL) | MIC90 (M. tuberculosis H37Rv; [5]): 0.042 µM (≈ 0.0169 µg/mL)

COc1cc(Cc2cnc(N)nc2N)cc(OC)c1OC [TMP, trimethoprim]
SYTOX Green uptake (E. coli ATCC 25922 [1]): no uptake | MIC values against E. coli ΔmscL, ΔmscS and WT parent strain set [2]: no significant differences

[H]/N=C(/N)N[C@H]1[C@H](O)[C@@H](O)[C@H](O[C@@H]2O[C@@H](C)[C@](O)(C=O)[C@H]2O[C@@H]2O[C@@H](CO)[C@H](O)[C@@H](O)[C@@H]2NC)[C@@H](N/C(N)=N\[H])[C@@H]1O [Streptomycin]
MIC90 (M. tuberculosis H37Rv; [4]): 0.21 µM (≈ 0.122 µg/mL) | MIC90 (M. tuberculosis H37Rv; [5]): 0.27 µM (≈ 0.157 µg/mL)

CC1(C)N=C(N)N=C(N)N1c1ccc(Cl)cc1 [CYC, cycloguanil]
MIC90 (S. aureus ATCC 11632): > 128 µM | MIC90 (E. coli ATCC 25922 [3]): > 128 µM | MIC90 (P. aeruginosa PAO1): > 128 µM | SaDHFR IC50 (μM ± SD) (SaDHFR): did not inhibit and nf^a | MIC90 (M. tuberculosis H37Rv; [4]): 74.8 µM (≈ 18.8 µg/mL) | MIC90 (M. tuberculosis H37Rv; [5]): > 100 µM | Half-Maximal Inhibitory Concentration (IC50, μM) M. abscessus L948 MABA (M. abscessus L948; MABA): no inhibition | IC50 (M. abscessus L948): > 200 µM | SYTOX Green uptake (E. coli ATCC 25922 [1]): no uptake | MIC values against E. coli ΔmscL, ΔmscS and WT parent strain set [2]: no significant differences | susceptibility / activity in agar diffusion, M. luteus (Micrococcus luteus): no activity | susceptibility / activity in agar diffusion, B. subtilis (Bacillus subtilis): susceptible; also recorded: low activity | activity in agar diffusion, S. aureus (S. aureus): no activity | hemolysis (human erythrocytes): no detectable hemolysis

CC[C@H]1OC(=O)[C@H](C)[C@@H](O[C@H]2C[C@@](C)(OC)[C@@H](O)[C@H](C)O2)[C@H](C)[C@@H](O[C@@H]2O[C@H](C)C[C@H](N(C)C)[C@H]2O)[C@](C)(OC)C[C@@H](C)C(=O)[C@H](C)[C@@H](O)[C@]1(C)O [Clarithromycin]
IC50 (M. abscessus L948): 15.4 µM | inhibition plateau in M. abscessus MABA (M. abscessus L948; plateau from 12.5–200 μM): ~ 70%

CO[C@H]1/C=C/O[C@@]2(C)Oc3c(C)c(O)c4c(O)c(c(/C=N/N5CCN(C)CC5)c(O)c4c3C2=O)NC(=O)/C(C)=C\C=C\[C@H](C)[C@H](O)[C@@H](C)[C@@H](O)[C@@H](C)[C@H](OC(C)=O)[C@@H]1C [Rifampicin]
MIC90 (M. tuberculosis H37Rv; [4]): 0.05 µM (≈ 0.0411 µg/mL) | MIC90 (M. tuberculosis H37Rv; [5]): < 0.016 µM

O=[N+]([O-])c1cn2c(n1)OC[C@@H](OCc1ccc(OC(F)(F)F)cc1)C2 [Pretomanid]
MIC90 (M. tuberculosis H37Rv; [4]): 0.38 µM (≈ 0.137 µg/mL) | MIC90 (M. tuberculosis H37Rv; [5]): 0.51 µM (≈ 0.183 µg/mL)

NNC(=O)c1ccncc1 [Isoniazid]
MIC90 (M. tuberculosis H37Rv; [4]): 0.24 µM (≈ 0.0329 µg/mL) | MIC90 (M. tuberculosis H37Rv; [5]): 0.12 µM (≈ 0.0165 µg/mL)
